What was measured:
[1] = target: PCSK9 (Homo sapiens, UniProt Q8NBP7, G670E/V474I); experiment: Assay 3 - PCSK9 LDL-C uptake assay in HepG2 cells; assay type: cell-based; parameters: TEV cleavage site (C); His6 (C); host or cells: added to HepG2 cells (ATCC #HB-8065); conditions: 125 nM PCSK9, pHrodo Red-LDL, read-out: Assay 3 LDL uptake potency
How it was run: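 HepG2 cells seeded 24 h, then given compound (half-log series, top 10 μM) plus PCSK9 at 125 nM final for 24 h at 37 °C. pHrodo Red-LDL (6 μg/mL) added; uptake imaged at 4 h and 24 h. Signal normalized between DMSO and 100 nM evolocumab controls, four-parameter logistic fit.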

[2] = target: GSK3β (Glycogen synthase kinase-3 beta) (Homo sapiens, UniProt P49841); experiment: Assay 6 - GSK3β assay (ThermoFisher Z-Lyte); assay type: biochemical; conditions: geometric mean; ATP Conc: 10 μM; read-out: Assay 6 (GSK3β FRET-Z-Lyte CR) GMean IC50 (μM) ATP Conc: 10
GSK3β (Glycogen synthase kinase-3 beta), sequence (P49841 whole entry): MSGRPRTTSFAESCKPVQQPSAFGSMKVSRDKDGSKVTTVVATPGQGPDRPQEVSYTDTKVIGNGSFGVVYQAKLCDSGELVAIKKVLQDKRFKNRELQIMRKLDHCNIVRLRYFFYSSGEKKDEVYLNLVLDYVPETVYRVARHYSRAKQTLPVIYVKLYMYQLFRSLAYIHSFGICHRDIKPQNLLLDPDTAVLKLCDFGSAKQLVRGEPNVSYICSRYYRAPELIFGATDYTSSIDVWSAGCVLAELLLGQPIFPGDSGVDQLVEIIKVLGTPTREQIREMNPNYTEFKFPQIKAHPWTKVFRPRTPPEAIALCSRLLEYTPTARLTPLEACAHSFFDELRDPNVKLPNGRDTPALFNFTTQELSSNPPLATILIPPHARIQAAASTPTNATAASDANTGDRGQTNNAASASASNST
How it was run: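 Z-Lyte fluorescence kinase assay with 0.22-0.92 ng GSK3β and 2 μM Ser/Thr 09 peptide in 50 mM HEPES pH 7.5, 10 mM MgCl2, 1 mM EGTA, 0.01% BRIJ-35. Kinase reaction 60 min at room temperature, then 60 min development. 10-point 3-fold titration from 10 μM in 1% DMSO, fitted to a sigmoidal dose-response curve.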

PCSK9, sequence (Q8NBP7 with tags, fused parts or gaps V474I/G670E): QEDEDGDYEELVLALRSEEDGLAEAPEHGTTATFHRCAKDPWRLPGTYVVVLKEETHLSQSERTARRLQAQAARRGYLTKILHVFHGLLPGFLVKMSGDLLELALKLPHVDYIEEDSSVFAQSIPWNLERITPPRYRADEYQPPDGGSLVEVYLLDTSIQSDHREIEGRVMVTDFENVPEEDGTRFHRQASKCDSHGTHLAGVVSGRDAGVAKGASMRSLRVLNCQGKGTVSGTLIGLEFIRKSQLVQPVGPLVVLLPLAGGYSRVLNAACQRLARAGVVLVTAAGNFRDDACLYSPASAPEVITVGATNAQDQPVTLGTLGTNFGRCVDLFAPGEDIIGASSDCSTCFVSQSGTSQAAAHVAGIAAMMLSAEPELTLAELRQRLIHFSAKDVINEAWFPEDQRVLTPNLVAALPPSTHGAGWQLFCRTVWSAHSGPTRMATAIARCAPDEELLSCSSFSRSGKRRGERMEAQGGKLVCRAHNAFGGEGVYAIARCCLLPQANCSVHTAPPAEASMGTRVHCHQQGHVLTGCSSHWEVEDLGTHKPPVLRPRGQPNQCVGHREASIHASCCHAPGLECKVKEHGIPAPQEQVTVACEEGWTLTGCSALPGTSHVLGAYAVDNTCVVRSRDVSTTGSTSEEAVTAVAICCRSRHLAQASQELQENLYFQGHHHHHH

Structure (SMILES)	EC50 [1] [nM]	IC50 [2] [µM]
Cc1cccn(-c2ccc(N[C@H]3CC[C@H](Nc4cnc(Cl)cn4)C3)nc2)c1=O [Example 24, 6′-(((1S,3S)-3-((5-Chloropyrazin-2-yl)amino)cyclopentyl)amino)-3-methyl-2H-[1,3′-bipyridin]-2-one]	400	> 10
Cn1c(=O)n(-c2ccc(N[C@H]3CC[C@H](Nc4cnc(Cl)cn4)C3)nc2)c2ccccc21 [Example 27, 1-(6-(((1S,3S)-3-((5-Chloropyrazin-2-yl)amino)cyclopentyl)amino)pyridin-3-yl)-3-methyl-1,3-dihydro-2H-benzo[d]imidazol-2-one]	100	> 10
O=c1ccc(-c2ccc(F)cc2)cn1-c1ccc(N[C@H]2CC[C@H](Nc3cnc(Cl)cn3)C2)nc1 [Example 32, 6′-(((1S,3S)-3-((5-Chloropyrazin-2-yl)amino)cyclopentyl)amino)-5-(4-fluorophenyl)-2H-[1,3′-bipyridin]-2-one]	200	> 10
O=C(O)c1ccc(=O)n(-c2ccc(N[C@H]3CC[C@H](Nc4cnc(Cl)cn4)C3)nc2)c1 [Example 33, 6′-(((1S,3S)-3-((5-Chloropyrazin-2-yl)amino)cyclopentyl)amino)-2-oxo-2H-[1,3′-bipyridine]-5-carboxylic acid]	100	> 10
O=c1ccc2ccccc2n1-c1ccc(N[C@H]2CC[C@H](Nc3cnc(Cl)cn3)C2)nc1 [Example 35, 1-(6-(((1S,3S)-3-((5-Chloropyrazin-2-yl)amino)cyclopentyl)amino)pyridin-3-yl)quinolin-2 (1H)-one]	100	> 10
COc1cccn(-c2ccc(N[C@H]3CC[C@H](Nc4cnc(C)cn4)C3)nc2)c1=O [Example 36, 3-Methoxy-6′-(((1S,3S)-3-((5-methylpyrazin-2-yl)amino)cyclopentyl)amino)-2H-[1,3′-bipyridin]-2-one]	100	> 10
Cc1cnc(N[C@H]2CC[C@H](Nc3ccc(-n4c(=O)ccc5cccnc54)cn3)C2)cn1 [Example 37, 1-(6-(((1S,3S)-3-((5-Methylpyrazin-2-yl)amino)cyclopentyl)amino)pyridin-3-yl)-1,8-naphthyridin-2(1 H)-one]	200	> 10
Cc1cnc(N[C@H]2CC[C@H](Nc3ccc(-n4c(=O)n(C)c5cccnc54)cn3)C2)cn1 [Example 42, 1-Methyl-3-(6-(((1S,3S)-3-((5-methylpyrazin-2-yl)amino)cyclopentyl)amino)pyridin-3-yl)-1,3-dihydro-2H-imidazo[4,5-b]pyridin-2-one]	200	> 10
Cc1cnc(N[C@H]2CC[C@H](Nc3ccc(-n4cccc(C)c4=O)cn3)C2)cn1 [Example 44, 3-Methyl-6′-(((1S,3S)-3-((5-methylpyrazin-2-yl)amino)cyclopentyl)amino)-2H-[1,3′-bipyridin]-2-one]	300	> 10
Cc1cnc(N[C@H]2CC[C@H](Nc3ccc(-n4c(=O)n(C)c5ccccc54)cn3)C2)cn1 [Example 45, 1-Methyl-3-(6-(((1S,3S)-3-((5-methylpyrazin-2-yl)amino)cyclopentyl)amino)pyridin-3-yl)-1,3-dihydro-2H-benzo[d]imidazol-2-one]	200	> 10
Cc1cnc(N[C@H]2CC[C@H](Nc3ccc(-n4c(=O)[nH]c5ccccc54)cn3)C2)cn1 [Example 46, 1-(6-(((1S,3S)-3-((5-Methylpyrazin-2-yl)amino)cyclopentyl)amino)pyridin-3-yl)-1,3-dihydro-2H-benzo[d]imidazol-2-one]	700	> 10
Cc1cnc(N[C@H]2CC[C@H](Nc3ccc(-n4cccc(Cl)c4=O)cn3)C2)cn1 [Example 47, 3-Chloro-6′-(((1S,3S)-3-((5-methylpyrazin-2-yl)amino)cyclopentyl)amino)-2H-[1,3′-bipyridin]-2-one]	100	> 10
Cn1c(=O)n(-c2ccc(N[C@H]3CC[C@H](Nc4cnc(OC(F)F)cn4)C3)nc2)c2ccccc21 [Example 82, 1-(6-(((1S,3S)-3-((5-(Difluoromethoxy)pyrazin-2-yl)amino)cyclopentyl)amino)pyridin-3-yl)-3-methyl-1,3-dihydro-2H-benzo[d]imidazol-2-one]	200	> 10
COc1cccn(-c2ccc(N[C@H]3CC[C@H](Nc4cnc(OC(F)F)cn4)C3)nc2)c1=O [Example 94, 6′-(((1S,3S)-3-((5-(Difluoromethoxy)pyrazin-2-yl)amino)cyclopentyl)amino)-3-methoxy-2H-[1,3′-bipyridin]-2-one]	300	> 10
Cc1cnc(N[C@H]2CC[C@H](Nc3ccc(-n4cccc(C#N)c4=O)cn3)C2)cn1 [Example 103, 6′-(((1S,3S)-3-((5-Methylpyrazin-2-yl)amino)cyclopentyl)amino)-2-oxo-2H-[1,3′-bipyridine]-3-carbonitrile]	200	> 10
COc1cccn(-c2ccc(N[C@H]3CC[C@H](Nc4cnc(C5CC5)cn4)C3)nc2)c1=O [Example 106, 6′-(((1S,3S)-3-((5-Cyclopropylpyrazin-2-yl)amino)cyclopentyl)amino)-3-methoxy-2H-[1,3′-bipyridin]-2-one]	200	> 10
COc1ccnn(-c2ccc(N[C@H]3CC[C@H](Nc4cnc(C)cn4)C3)nc2)c1=O [Example 226, 4-Methoxy-2-(6-(((1S,3S)-3-((5-methylpyrazin-2-yl)amino)cyclopentyl)amino)pyridin-3-yl)pyridazin-3 (2H)-one]	200	> 10

From US20240217951A1, “PCSK9 INHIBITORS AND METHODS OF USE THEREOF” (AstraZeneca AB, priority 2022, published 2024)
